Patent US9695155B2, “Herbicidal substituted pyrimidinyloxy benzene compounds” (E. I. DU PONT DE NEMOURS AND COMPANY, priority 2013, dated 2017)

Tests used:
green foxtail = experiment: Test E preemergence; format: in vivo, Setaria viridis; conditions: for Foxtail, Green plant response rating: scale 0 to 100 (0 no effect, 100 complete control); for Plant response rating, Foxtail, Green: scale 0 to 100, 0 no effect, 100 complete control
How it was run: (§1)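 Test chemicals formulated in a non-phytotoxic solvent mixture containing a surfactant were applied preemergence to seeds in silt loam soil or postemergence to plants at the 1- to 4-leaf stage in potting mix. After 14 to 21 days in a greenhouse, injury was visually rated against controls on a 0-100 scale (0 = no effect, 100 = complete control).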

barnyardgrass [1] = experiment: Test E preemergence; format: in vivo, Echinochloa crus-galli; conditions: for Barnyardgrass plant response rating: scale 0 to 100 (0 no effect, 100 complete control); for Plant response rating, Barnyardgrass: scale 0 to 100, 0 no effect, 100 complete control
How it was run: as §1

goosegrass = experiment: Test E preemergence; format: in vivo, Eleusine indica; conditions: for Goosegrass plant response rating: scale 0 to 100 (0 no effect, 100 complete control); for Plant response rating, Goosegrass: scale 0 to 100, 0 no effect, 100 complete control
How it was run: as §1

hairy beggarticks = experiment: Test E postemergence; format: in vivo, Bidens pilosa; conditions: Bidens pilosa, post-emergence, read-out: Plant response rating, Beggarticks
How it was run: as §1

palmer pigweed = experiment: Test E postemergence; format: in vivo, Amaranthus palmeri; conditions: post-emergence, read-out: Plant response rating, Pigweed, Palmer
How it was run: as §1

giant foxtail = experiment: Test E preemergence; format: in vivo, Setaria faberii; conditions: for Foxtail, Giant plant response rating: scale 0 to 100 (0 no effect, 100 complete control); for Plant response rating, Foxtail, Giant: scale 0 to 100, 0 no effect, 100 complete control
How it was run: as §1

waterhemp = experiment: Test E preemergence; format: in vivo, Amaranthus rudis; conditions: for Waterhemp plant response rating: scale 0 to 100 (0 no effect, 100 complete control); for Plant response rating, Waterhemp: scale 0 to 100, 0 no effect, 100 complete control
How it was run: as §1

Italian ryegrass = experiment: Test E preemergence; format: in vivo, Lolium multiflorum; conditions: for Ryegrass, Italian plant response rating: scale 0 to 100 (0 no effect, 100 complete control); for Plant response rating, Ryegrass, Italian: scale 0 to 100, 0 no effect, 100 complete control
How it was run: as §1

ragweed = experiment: Test E preemergence; format: in vivo, Ambrosia elatior; conditions: for Ragweed plant response rating: scale 0 to 100 (0 no effect, 100 complete control); for Plant response rating, Ragweed: scale 0 to 100, 0 no effect, 100 complete control
How it was run: as §1

wild poinsettia = experiment: Test E postemergence; format: in vivo, Euphorbia heterophylla; conditions: Euphorbia heterophylla, post-emergence, read-out: Plant response rating, Poinsettia, Wild
How it was run: as §1

sandbur = experiment: Test E preemergence; format: in vivo, Cenchrus echinatus; conditions: for Sandbur plant response rating: scale 0 to 100 (0 no effect, 100 complete control); for Plant response rating, Sandbur: scale 0 to 100, 0 no effect, 100 complete control
How it was run: as §1

surinam grass = experiment: Test E preemergence; format: in vivo, Brachiaria decumbens; conditions: for Surinam Grass plant response rating: scale 0 to 100 (0 no effect, 100 complete control); for Plant response rating, Surinam Grass: scale 0 to 100, 0 no effect, 100 complete control
How it was run: as §1

fall panicum = experiment: Test E preemergence; format: in vivo, Panicum dichotomiflorum; conditions: for Panicum, Fall plant response rating: scale 0 to 100 (0 no effect, 100 complete control); for Plant response rating, Panicum, Fall: scale 0 to 100, 0 no effect, 100 complete control
How it was run: as §1

kochia = experiment: Test E preemergence; format: in vivo, Kochia scoparia; conditions: for Kochia plant response rating: scale 0 to 100 (0 no effect, 100 complete control); for Plant response rating, Kochia: scale 0 to 100, 0 no effect, 100 complete control
How it was run: as §1

nightshade = experiment: Test E preemergence; format: in vivo, Solanum ptycanthum; conditions: for Nightshade plant response rating: scale 0 to 100 (0 no effect, 100 complete control); for Plant response rating, Nightshade: scale 0 to 100, 0 no effect, 100 complete control
How it was run: as §1

field bindweed = experiment: Test E postemergence; format: in vivo, Convolvulus arvensis; conditions: Convolvulus arvensis, post-emergence, read-out: Plant response rating, Field Bindweed
How it was run: as §1

ducksalad = experiment: Test C flooded paddy test; format: in vivo, Heteranthera limosa; conditions: Flood, scale 0 to 100 (0 no effect, 100 complete control), 13 to 15 days
How it was run: (§2)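 In-water treatment: compound dosed into 3 cm flood over soil, water level unchanged throughout. Controls run alongside; visual assessment at day 13–15.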

barnyardgrass [2] = experiment: Test C flooded paddy test; format: in vivo, Echinochloa crus-galli; conditions: Flood, scale 0 to 100 (0 no effect, 100 complete control), 13 to 15 days
How it was run: as §2

[3] = Postemergence, 31 g ai/ha, scale 0 to 100
[4] = Postemergence, 62 g ai/ha, scale 0 to 100
[5] = Postemergence, 125 g ai/ha, scale 0 to 100
[6] = postemergence, 16 g ai/ha, scale 0 to 100, 0 no effect, 100 complete control

SMILES: N#Cc1cccc(Oc2ncc(Cl)cn2)c1-n1cc(Br)cn1 [Compound 52, 2-(4-bromo-1H-pyrazol-1-yl)-3-[(5-chloro-2-pyrimidinyl)oxy]benzonitrile]
- Foxtail, Green plant response rating (green foxtail; 16 g ai/ha): 0
- Foxtail, Green plant response rating (green foxtail; 31 g ai/ha): 20
- Foxtail, Green plant response rating (green foxtail; 62 g ai/ha): 75
- Plant response rating, Foxtail, Green (green foxtail; 125 g ai/ha): 80
- Plant response rating, Foxtail, Green (green foxtail; 250 g ai/ha): 100
- Barnyardgrass plant response rating (barnyardgrass [1]; 16 g ai/ha, preemergence): 0
- Barnyardgrass plant response rating (barnyardgrass [1]; 31 g ai/ha, preemergence): 0
- Plant response rating, Barnyardgrass (barnyardgrass [1]; Preemergence, 62 g ai/ha): 30
- Plant response rating, Barnyardgrass (barnyardgrass [1]; preemergence, 125 g ai/ha): 75
- Plant response rating, Barnyardgrass (barnyardgrass [1]; preemergence, 250 g ai/ha): 98
- Goosegrass plant response rating (goosegrass; 16 g ai/ha): 5
- Goosegrass plant response rating (goosegrass; 31 g ai/ha): 50
- Goosegrass plant response rating (goosegrass; 62 g ai/ha): 65
- Plant response rating, Goosegrass (goosegrass; 125 g ai/ha): 98
- Plant response rating, Goosegrass (goosegrass; 250 g ai/ha): 100
- pest or weed control at 31 g/ha (hairy beggarticks; [3]): 60%
- pest or weed control at 62 g/ha (hairy beggarticks; [4]): 70%
- pest or weed control at 125 g/ha (hairy beggarticks; [5]): 75%
- pest or weed control at 16 g/ha (hairy beggarticks; [6]): 30%
- pest or weed control at 31 g/ha (palmer pigweed; [3]): 70%
- pest or weed control at 62 g/ha (palmer pigweed; [4]): 95%
- pest or weed control at 125 g/ha (palmer pigweed; [5]): 95%
- pest or weed control at 16 g/ha (palmer pigweed; [6]): 60%
- Foxtail, Giant plant response rating (giant foxtail; 16 g ai/ha): 0
- Foxtail, Giant plant response rating (giant foxtail; 31 g ai/ha): 70
- Foxtail, Giant plant response rating (giant foxtail; 62 g ai/ha): 70
- Plant response rating, Foxtail, Giant (giant foxtail; 125 g ai/ha): 100
- Plant response rating, Foxtail, Giant (giant foxtail; 250 g ai/ha): 100
- Waterhemp plant response rating (waterhemp; 16 g ai/ha): 80
- Waterhemp plant response rating (waterhemp; 31 g ai/ha): 100
- Waterhemp plant response rating (waterhemp; 62 g ai/ha): 100
- Plant response rating, Waterhemp (waterhemp; 125 g ai/ha): 100
- Plant response rating, Waterhemp (waterhemp; 250 g ai/ha): 100
- Ryegrass, Italian plant response rating (Italian ryegrass; 16 g ai/ha): 0
- Ryegrass, Italian plant response rating (Italian ryegrass; 31 g ai/ha): 0
- Ryegrass, Italian plant response rating (Italian ryegrass; 62 g ai/ha): 0
- Plant response rating, Ryegrass, Italian (Italian ryegrass; 125 g ai/ha): 60
- Plant response rating, Ryegrass, Italian (Italian ryegrass; 250 g ai/ha): 90
- Ragweed plant response rating (ragweed; 16 g ai/ha): 0
- Ragweed plant response rating (ragweed; 31 g ai/ha): 0
- Ragweed plant response rating (ragweed; 62 g ai/ha): 0
- Plant response rating, Ragweed (ragweed; 125 g ai/ha): 5
- Plant response rating, Ragweed (ragweed; 250 g ai/ha): 70
- pest or weed control at 31 g/ha (wild poinsettia; [3]): 40%
- pest or weed control at 62 g/ha (wild poinsettia; [4]): 50%
- pest or weed control at 125 g/ha (wild poinsettia; [5]): 70%
- pest or weed control at 16 g/ha (wild poinsettia; [6]): 45%
- Sandbur plant response rating (sandbur; 16 g ai/ha): 0
- Sandbur plant response rating (sandbur; 31 g ai/ha): 0
- Sandbur plant response rating (sandbur; 62 g ai/ha): 10
- Plant response rating, Sandbur (sandbur; 125 g ai/ha): 35
- Plant response rating, Sandbur (sandbur; 250 g ai/ha): 80
- Surinam Grass plant response rating (surinam grass; 16 g ai/ha): 0
- Surinam Grass plant response rating (surinam grass; 31 g ai/ha): 0
- Surinam Grass plant response rating (surinam grass; 62 g ai/ha): 0
- Plant response rating, Surinam Grass (surinam grass; 125 g ai/ha): 10
- Plant response rating, Surinam Grass (surinam grass; 250 g ai/ha): 10
- Panicum, Fall plant response rating (fall panicum; 16 g ai/ha): 0
- Panicum, Fall plant response rating (fall panicum; 31 g ai/ha): 0
- Panicum, Fall plant response rating (fall panicum; 62 g ai/ha): 100
- Plant response rating, Panicum, Fall (fall panicum; 125 g ai/ha): 100
- Plant response rating, Panicum, Fall (fall panicum; 250 g ai/ha): 100
- Kochia plant response rating (kochia; 31 g ai/ha): 25
- Kochia plant response rating (kochia; 62 g ai/ha): 65
- Plant response rating, Kochia (kochia; 125 g ai/ha): 100
- Plant response rating, Kochia (kochia; 250 g ai/ha): 100
- Nightshade plant response rating (nightshade; 16 g ai/ha): 0
- Nightshade plant response rating (nightshade; 31 g ai/ha): 0
- Nightshade plant response rating (nightshade; 62 g ai/ha): 75
- Plant response rating, Nightshade (nightshade; 125 g ai/ha): 98
- Plant response rating, Nightshade (nightshade; 250 g ai/ha): 100
- pest or weed control at 31 g/ha (field bindweed; [3]): 50%
- pest or weed control at 62 g/ha (field bindweed; [4]): 65%
- pest or weed control at 125 g/ha (field bindweed; [5]): 65%
- pest or weed control at 16 g/ha (field bindweed; [6]): 50%

SMILES: Fc1cnc(Oc2cccc(C(F)F)c2-n2cc(C(F)(F)F)cn2)nc1 [Compound 164]
- Foxtail, Green plant response rating (green foxtail; 16 g ai/ha): 0
- Foxtail, Green plant response rating (green foxtail; 31 g ai/ha): 25
- Foxtail, Green plant response rating (green foxtail; 62 g ai/ha): 60
- Plant response rating, Foxtail, Green (green foxtail; 125 g ai/ha): 100
- Barnyardgrass plant response rating (barnyardgrass [1]; 16 g ai/ha, preemergence): 0
- Barnyardgrass plant response rating (barnyardgrass [1]; 31 g ai/ha, preemergence): 0
- Barnyardgrass plant response rating (barnyardgrass [1]; 62 g ai/ha, preemergence): 0
- Plant response rating, Barnyardgrass (barnyardgrass [1]; preemergence, 125 g ai/ha): 65
- Goosegrass plant response rating (goosegrass; 31 g ai/ha): 5
- Goosegrass plant response rating (goosegrass; 62 g ai/ha): 20
- Plant response rating, Goosegrass (goosegrass; 125 g ai/ha): 75
- Plant response rating, Ducksalad (ducksalad; 31 g ai/ha): 0
- Plant response rating, Ducksalad (ducksalad; 62 g ai/ha): 0
- Plant response rating, Ducksalad (ducksalad; 125 g ai/ha): 75
- Plant response rating, Ducksalad (ducksalad; 250 g ai/ha): 95
- Foxtail, Giant plant response rating (giant foxtail; 16 g ai/ha): 0
- Foxtail, Giant plant response rating (giant foxtail; 31 g ai/ha): 20
- Foxtail, Giant plant response rating (giant foxtail; 62 g ai/ha): 60
- Plant response rating, Foxtail, Giant (giant foxtail; 125 g ai/ha): 95
- Waterhemp plant response rating (waterhemp; 31 g ai/ha): 65
- Waterhemp plant response rating (waterhemp; 62 g ai/ha): 90
- Plant response rating, Waterhemp (waterhemp; 125 g ai/ha): 90
- Ryegrass, Italian plant response rating (Italian ryegrass; 31 g ai/ha): 0
- Ryegrass, Italian plant response rating (Italian ryegrass; 62 g ai/ha): 30
- Plant response rating, Ryegrass, Italian (Italian ryegrass; 125 g ai/ha): 60
- Ragweed plant response rating (ragweed; 31 g ai/ha): 0
- Ragweed plant response rating (ragweed; 62 g ai/ha): 25
- Plant response rating, Ragweed (ragweed; 125 g ai/ha): 60
- Sandbur plant response rating (sandbur; 31 g ai/ha): 0
- Sandbur plant response rating (sandbur; 62 g ai/ha): 0
- Plant response rating, Sandbur (sandbur; 125 g ai/ha): 10
- Surinam Grass plant response rating (surinam grass; 31 g ai/ha): 0
- Surinam Grass plant response rating (surinam grass; 62 g ai/ha): 20
- Plant response rating, Surinam Grass (surinam grass; 125 g ai/ha): 20
- Panicum, Fall plant response rating (fall panicum; 31 g ai/ha): 0
- Panicum, Fall plant response rating (fall panicum; 62 g ai/ha): 30
- Plant response rating, Panicum, Fall (fall panicum; 125 g ai/ha): 98
- Kochia plant response rating (kochia; 31 g ai/ha): 0
- Kochia plant response rating (kochia; 62 g ai/ha): 75
- Plant response rating, Kochia (kochia; 125 g ai/ha): 100
- Nightshade plant response rating (nightshade; 31 g ai/ha): 50
- Nightshade plant response rating (nightshade; 62 g ai/ha): 80
- Plant response rating, Nightshade (nightshade; 125 g ai/ha): 95
- Plant response rating, Barnyardgrass (barnyardgrass [2]; 31 g ai/ha): 0
- Plant response rating, Barnyardgrass (barnyardgrass [2]; 62 g ai/ha): 0
- Plant response rating, Barnyardgrass (barnyardgrass [2]; 125 g ai/ha): 0
- Plant response rating, Barnyardgrass (barnyardgrass [2]; 250 g ai/ha): 0
